Measurements as given in patent US12226409B2, “Treatment of hepatocellular carcinoma” (Eisai R&D Management Co., Ltd., priority 2017, dated 2025).

What was measured:
[1] = test system: patients with unresectable HCC; details: human, in vivo
Description: (§3) Randomization was stratified according to region (Asia-Pacific or Western regions), macroscopic portal vein invasion and/or extrahepatic spread (yes or no), Eastern Cooperative Oncology Group performance status (0 or 1), and body weight (<60 kg or ≥60 kg).
(§4) Safety assessments included recording of vital signs, hematologic and biochemical laboratory testing, urinalysis, and electrocardiography.

[2] = test system: patients with unresectable HCC; test: Open-label phase 3 study, safety and side-effect profile (CTCAE v4.0)
Description: as §3, §4

[3] = test system: unresectable hepatocellular carcinoma (HCC); test: REFLECT study, efficacy per independent review; format: in vivo, human
Description: The efficacy of LENVIMA was evaluated in a randomized, open-label, multicenter, international study (REFLECT; […]) conducted in patients with previously untreated unresectable hepatocellular carcinoma (HCC).

unresectable HCC = test: Open-label phase 3 noninferiority study, efficacy (tumor assessment by mRECIST); format: in vivo, human
Excerpt: (§1) The primary endpoint was overall survival.
Patients who were eligible for enrollment had unresectable HCC with diagnosis confirmed histologically or cytologically or with diagnosis confirmed clinically in accordance with the American Association for the Study of Liver Diseases criteria. Included patients also had ≥1 measureable target lesion, based on modified Response Evaluation Criteria in Solid Tumors (Lencioni 2010); Barcelona Clinic Liver Cancer stage B or C categorization (Bruix Hepatology 2011); Child-Pugh class A; and Eastern Cooperative Oncology Group performance status ≤1. All eligible patients had controlled blood pressure (≤150/90 mm Hg), and adequate organ function. Patients with ≥50% liver occupation, clear bile duct invasion, or portal vein invasion at the main portal vein were excluded. Patients also were excluded if that had received prior systemic therapy for HCC.
(§2) Tumors were evaluated in accordance with mRECIST (Lencioni R., Semin Liver Dis., 30(1):52-60, 2010); RECIST 1.1 was applied for nonhepatic lesions (Eisenhauer, Eur J Cancer, 45(2):228-47, 2009). The liver was examined with computed tomography or magnetic resonance imaging was performed using a triphasic scanning technique. Assessments were performed every 8 weeks until disease progression. Quality of life questionnaires were administered at baseline, on day 1 of each subsequent treatment cycle, and at the off-treatment visit.
The primary endpoint of overall survival was first tested for noninferiority then for superiority. The required number of events for the primary analysis was 700 deaths, based on the fill analysis set. The HR and its 95% confidence interval (CI) were estimated from a Cox proportional hazard model with treatment group as a factor and with the analysis stratified according to the same factors applied for randomization.
A fixed-sequence procedure was followed to control the overall type I error rate of analyses for both the primary and secondary efficacy endpoints at α=0.05 (2-sided). After noninferiority was declared, secondary efficacy endpoints were tested. Differences in progression-free survival and time to progression were evaluated using a stratified log-rank test with randomization stratification factors, with the associated HR and its 95% CI. A difference in the objective response rate was evaluated using the Cochran-Mantel-Haenszel chi-square test with randomized stratification factors as strata, with associated odds ratio and its 95% CI. To assess futility, 2 interim analyses (at 30% and 70% of the target number of events) were performed using Bayesian predictive probability in a noninferiority design by the independent data monitoring committee.

HCC = details: cited from earlier work
[4] = test system: patients with unresectable HCC; test: Quality of life, EORTC QLQ-C30 and QLQ-HCC18 questionnaires; format: in vivo, human; details: role functioning, pain, diarrhea (QLQ-C30); nutrition, body image (QLQ-HCC18)
Description: as §1, §2

Partition coefficient = format: physicochemical; details: read-out: partition coefficient (log P value)
Dissociation constant = format: physicochemical; details: 25° C.
Solubility = format: physicochemical

## CNC(=O)c1cc(Oc2ccc(NC(=O)Nc3ccc(Cl)c(C(F)(F)F)c3)cc2)ccn1 [Sorafenib]
[1]
  AEs leading to dose reduction or interruption, subjects: 55.6%
  Dose modification: AST increased: 3.8%
  Dose modification: ascites: 1.1%
  Dose modification: hepatic encephalopathy: 0.6%
  Dose modification: neutrophil count decreased: 1.1%
  Dose modification: pyrexia: 1.1%
  Dose modification: vomiting: 1.3%
  Dose modification: weight decreased: 0.8%
  Dose reduction/interruption: Abdominal pain: 8 (1.7) n (%)
  Dose reduction/interruption: Abdominal pain upper: 2 (0.4) n (%)
  Dose reduction/interruption: Alanine aminotransferase increased: 9 (1.9) n (%)
  Dose reduction/interruption: Anemia: 8 (1.7) n (%)
  Dose reduction/interruption: Ascites: 5 (1.1) n (%)
  Dose reduction/interruption: Aspartate aminotransferase increased: 18 (3.8) n (%)
  Dose reduction/interruption: Asthenia: 9 (1.9) n (%)
  Dose reduction/interruption: Blood and lymphatic system disorders: 13 (2.7) n (%)
  Dose reduction/interruption: Blood bilirubin increased: 14 (2.9) n (%)
  Dose reduction/interruption: Decreased appetite: 15 (3.2) n (%)
  Dose reduction/interruption: Dehydration: 0 (0.0) n (%)
  Dose reduction/interruption: Diarrhea: 35 (7.4) n (%)
  Dose reduction/interruption: Dyspnea: 4 (0.8) n (%)
  Dose reduction/interruption: Edema peripheral: 3 (0.6) n (%)
  Dose reduction/interruption: Esophageal varices hemorrhage: 1 (0.2) n (%)
  Dose reduction/interruption: Fatigue: 17 (3.6) n (%)
  Dose reduction/interruption: Gamma-glutamyltransferase increased: 4 (0.8) n (%)
  Dose reduction/interruption: Gastrointestinal disorders: 72 (15.2) n (%)
  Dose reduction/interruption: General disorders and administration site conditions: 35 (7.4) n (%)
  Dose reduction/interruption: Hepatic encephalopathy: 3 (0.6) n (%)
  Dose reduction/interruption: Hepatic function abnormal: 9 (1.9) n (%)
  Dose reduction/interruption: Hepatobiliary disorders: 19 (4.0) n (%)
  Dose reduction/interruption: Hypertension: 18 (3.8) n (%)
  Dose reduction/interruption: Hyponatremia: 0 (0.0) n (%)
  Dose reduction/interruption: Investigations: 52 (10.9) n (%)
  Dose reduction/interruption: Malaise: 0 (0.0) n (%)
  Dose reduction/interruption: Metabolism and nutrition disorders: 19 (4.0) n (%)
  Dose reduction/interruption: Musculoskeletal and connective tissue disorders: 9 (1.9) n (%)
  Dose reduction/interruption: Myalgia: 0 (0.0) n (%)
  Dose reduction/interruption: Nausea: 9 (1.9) n (%)
  Dose reduction/interruption: Nervous system disorders: 14 (2.9) n (%)
  Dose reduction/interruption: Neutropenia: 0 (0.0) n (%)
  Dose reduction/interruption: Neutrophil count decreased: 5 (1.1) n (%)
  Dose reduction/interruption: PPE syndrome: 18.5%
  Dose reduction/interruption: Palmar-plantar erythrodysesthesia syndrome: 88 (18.5) n (%)
  Dose reduction/interruption: Platelet count decreased: 12 (2.5) n (%)
  Dose reduction/interruption: Proteinuria: 7 (1.5) n (%)
  Dose reduction/interruption: Pyrexia: 5 (1.1) n (%)
  Dose reduction/interruption: Rash: 10 (2.1) n (%)
  Dose reduction/interruption: Rash maculo-papular: 5 (1.1) n (%)
  Dose reduction/interruption: Renal and urinary disorders: 9 (1.9) n (%)
  Dose reduction/interruption: Respiratory, thoracic and mediastinal disorders: 12 (2.5) n (%)
  Dose reduction/interruption: Stomatitis: 2 (0.4) n (%)
  Dose reduction/interruption: Thrombocytopenia: 4 (0.8) n (%)
  Dose reduction/interruption: Vascular disorders: 19 (4.0) n (%)
  Dose reduction/interruption: Vomiting: 6 (1.3) n (%)
  Dose reduction/interruption: Weight decreased: 4 (0.8) n (%)
  Dose reduction/interruption: White blood cell count decreased: 4 (0.8) n (%)
  Dose reduction/interruption: decreased appetite: 3.2%
  Dose reduction/interruption: diarrhea: 7.4%
  Dose reduction/interruption: fatigue: 3.6%
  Dose reduction/interruption: hypertension: 3.8%
  Dose reduction/interruption: proteinuria: 1.5%
  Primary reason for discontinuation of treatment: Adverse event: 43 (9.0) n (%)
  Subjects with Any TEAEs: 472 (99.4) n (%)
  Subjects with any TEAEs leading to Dose Reduction or Interruption: 264 (55.6) n (%)
  TEAE: Abdominal pain: 87 (18.3) n (%)
  TEAE: Abdominal pain upper: 40 (8.4) n (%)
  TEAE: Alanine aminotransferase increased: 52 (10.9) n (%)
  TEAE: Alopecia: 119 (25.1) n (%)
  TEAE: Ascites: 44 (9.3) n (%)
  TEAE: Aspartate aminotransferase increased: 80 (16.8) n (%)
  TEAE: Asthenia: 48 (10.1) n (%)
  TEAE: Back pain: 31 (6.5) n (%)
  TEAE: Blood bilirubin increased: 63 (13.3) n (%)
  TEAE: Constipation: 52 (10.9) n (%)
  TEAE: Edema peripheral: 33 (6.9) n (%)
  TEAE: Fatigue: 119 (25.1) n (%)
  TEAE: Nausea: 68 (14.3) n (%)
  TEAE: Palmar-plantar erythrodysesthesia: 52.4%
  TEAE: Palmar-plantar erythrodysesthesia syndrome: 249 (52.4) n (%)
  TEAE: Platelet count decreased: 58 (12.2) n (%)
  TEAE: Pyrexia: 63 (13.3) n (%)
  TEAE: Rash: 76 (16.0) n (%)
  TEAE: Stomatitis: 56 (11.8) n (%)
  TEAE: Vomiting: 36 (7.6) n (%)
  TEAE: Weight decreased: 106 (22.3) n (%)
  Treatment-emergent adverse events of grade 3 or higher, patients: 66.5%
  Treatment-emergent adverse events, patients: 99.4%
  WBC count deceased, adjusted by treatment duration: 0.15 episodes per SY
  dysphonia, adjusted by treatment duration: 0.28 episodes per SY
  hepatic encephalopathy, adjusted by treatment duration: 0.04 episodes per SY
  hypothyroidism, adjusted by treatment duration: 0.03 episodes per SY
  neutrophil count decreased, adjusted by treatment duration: 0.06 episodes per SY
  proteinuria, adjusted by treatment duration: 0.31 episodes per SY
  subjects without a TEAE: 3 subjects
[2]; 1 event per patient
  treatment-related fatal adverse events included: tumor hemorrhage, ischemic stroke, respiratory failure, and sudden death
[3]; RECIST 1.1, independent review
  Median PFS: 3.6 months
  PFS Number of Events: 320
  PFS Number of Events (%): (67) %
[3]; in vivo
  Median OS: 12.3 months
  Number of deaths: 350
  Number of deaths (%): (74) %
[3]; mRECIST, independent review
  Median PFS: 3.6 months
  PFS Number of Events: 323
  PFS Number of Events (%): (68) %
Unresectable HCC; Full Analysis Set
  Primary reason for discontinuation of treatment: Disease Progression: 347 (72.9) n (%)
Unresectable HCC; in vivo
  Median overall survival: 12.3 mo
Unresectable HCC; mRECIST
  Median progression-free survival: 3.7 mo
  Median time to progression: 3.7 mo
  Objective response rate: 9.2%
HCC; first-line treatment for HCC
  Median overall survival: 10.7 months
HCC; in vivo
  median improvement in overall survival compared with placebo: 2.8 months
  response rate: 2%
[4]
  time to clinically meaningful deterioration of quality of life: deterioration was observed earlier

## COc1cc2nccc(Oc3ccc(NC(=O)NC4CC4)c(Cl)c3)c2cc1C(N)=O [LENVIMA, 4-[3-chloro-4-(N′-cyclopropylureido)phenoxy]-7-methoxyquinoline-6-carboxamide methanesulfonate]
[2]; in vivo
  adverse reactions leading to dose reduction or interruption: about 62%
  discontinuation due to fatigue: 1%
  discontinuation due to hepatic encephalopathy: 1%
  discontinuation due to hepatic failure: 1%
  discontinuation due to hyperbilirubinemia: 1%
  dose reduction or interruption due to decreased appetite: 8%
  dose reduction or interruption due to diarrhea: 8%
  dose reduction or interruption due to fatigue: 9%
  dose reduction or interruption due to hypertension: 6%
  dose reduction or interruption due to palmar-plantar erythrodysesthesia syndrome: 5%
  dose reduction or interruption due to proteinuria: 7%
  serious adverse reaction: ascites: 3%
  serious adverse reaction: decreased appetite: 2%
  serious adverse reaction: hepatic encephalopathy: 4%
  serious adverse reaction: hepatic failure: 3%
  treatment discontinuation due to adverse reactions: 20%
Partition coefficient
  logP: 3.3
Dissociation constant
  pKa: 5.05
[3]; RECIST 1.1, independent review
  Median PFS: 7.3 months
  Objective response rate: 19%
  PFS Number of Events: 307
  PFS Number of Events (%): (64) %
[3]; in vivo
  Number of deaths: 351
  Number of deaths (%): (73) %
[3]; mRECIST, independent review
  Objective response rate: 41%
  PFS Number of Events: 311
  PFS Number of Events (%): (65) %
Solubility
  solubility in ethanol (dehydrated): practically insoluble
  solubility in water: slightly soluble
